Values of other authors in US20220023398A1, “COMPOSITIONS AND METHODS FOR TREATING THYROID DISEASE” (Script Essentials, LLC, priority 2015, published 2022).

How the values were obtained:
[1] = supplementation, even in selenium sufficient patients
[2] = after oral supplementation
[3] = participants with low T3, normal T4

## [Se] [selenium]
[1]
  thyroid peroxidase (TPO) antibody levels in the blood: reduced

## O=S(=O)([O-])[O-].[Zn+2] [zinc sulfate]
[2]; [3]
  TSH: normalized
  reverse T3 (rT3): decreased
[2]; participants with low T3, normal T4, mild to moderate zinc deficiency
  levels of T3: normalized
